Laboratory results reported in patent US20260315446A1, “ANTIFUNGAL COMPOUNDS AND USES THEREOF” (priority 2023, published 2026).
≈ marks a conversion by molar mass, not a printed value. Like-named read-outs stand apart in the source and are kept apart here.

Key:
Aspergillus fumigatus = assay: MEC assay (Example 3); details: strain akuB^Ku80
[1] = test system: C. neoformans growth versus IL-2 in murine T cells; assay: Therapeutic index score (immunosuppressive fold change to antifungal fold change relative to FK506); parameters: species or system Cryptococcus neoformans; mouse; details: Example 3; C. neoformans H99, FK506 = 1.0
From the text: To assess the therapeutic potential for these compounds, it was important to develop an approach to score and rank them based on antifungal and immunosuppressive activities. The therapeutic index score (TIscore) is a ratio of the immunosuppressive fold change to the antifungal fold change, with all values relative to the baseline FK506 activity (FIG. 6B). A TIscore of >1.0 indicates an increase in fungal specificity because the fold change of the immunosuppressive reduction is greater than the antifungal activity reduction. As an example, JH-FK-05 is 20-fold reduced for antifungal activity but about 180-fold reduced for immunosuppression. Therefore, the TIscore of JH-FK-05 is 9.1 (TIscore=182/20). The top two analogs were JH-FK-02 (TIscore=9.7) and JH-FK-05 (TIscore=9.1). Due to the similar TIscore, JH-FK-05 was prioritized to advance to animal trials on the merit of more pronounced antifungal activity compared to JH-FK-02.
Based on the in vitro fungal and mammalian calcineurin inhibition data, the panel of FK520 analogs was assessed and ranked. Therapeutic index (TI) scores were used to quantify the effects of structural modification on the compounds (Table 8). Therapeutic index scores were calculated for each analog as the ratio of relative change in immunosuppressive and antifungal activities compared to FK506 as previously utilized (see, I-Toy M J, et at. 2022. mBio 13:e0104922). This ratio of therapeutic benefit and host toxicity, or fungal and mammalian calcineurin inhibition, allowed us to quantify and rank these analogs. […] This is the greatest TI found within the library and allowed us to identify JH-FK-08 as a lead candidate for an in vivo study. Tolerability of JH-FK-08 was assessed by monitoring animal responses to drug dosing across 14 days, including changes in weight, fur condition, and behavior. A maximum dose of 40 mg/kg was tested in once a day dosing, and due to solubility limitations, the tolerability of JH-FK-08 at 60 and 80 mg/kg total daily doses was assessed by dosing two equal doses per day (FIG. 14). […] It should be noted that analogs JH-FK-12 and JH-FK-23 are also promising candidates with respective Tis of 24.7 and 24.5.

[2] = test system: IL-2 expression in primary mouse CD4+ T cells (mammalian calcineurin); assay: In vitro immunosuppressive activity, IL-2 expression (Example 3); assay type: cell-based; details: 72 h
Procedure: Modifications at the C-22 position reduce inhibition of mammalian calcineurin signaling Mammalian calcineurin inhibition was then assessed and found to be reduced for these FK520 analogs. The inhibition of mammalian calcineurin was assessed by measuring the reduction of IL-2 expression from primary mouse CD4^+ T cells cultured in the presence of FK506, FK520, or an analog. Calcineurin activity is required for T cell activation and cytokine production, and IL-2 production serves as an effective measure of mammalian calcineurin activity. After culturing mouse CD4′ T cells for 72 h, IL-2 expression was analyzed by flow cytometry to evaluate the immunosuppressive activity of the analogs. […] However, compound concentrations that permit high IL-2 expression are less likely to result in cell death.
Spleen and lymph nodes from C57BL/6 mice were collected and homogenized through a 40-μm filter. Pan-CD4^+ T cells were enriched using the MagniSort Mouse CD4 T Cell Enrichment Kit (Invitrogen). Thereafter, CD4^+CD25^−CD62L^hiCD44^lo naïve CD4^+ T cells were FACS-sorted using a MoFlo Astrios cell sorter (Beckman Coulter). Naïve CD4^+ T cells were cultured in Iscove's Modified Dulbecco's Medium supplemented with 10% fetal bovine serum (FBS), penicillin (10 U/mL), streptomycin (10 μg/mL), glutamine (2 mM), gentamicin (50 μg/mL), and β-mercaptoethanol (55 μM). Cells were cultured for 72 h on anti-hamster IgG-coated plates with hamster anti-CD3s antibodies, hamster anti-CD28 antibodies, neutralizing anti-IL-4 antibodies, recombinant IL-12 (10 ng/mL), and recombinant IL-2 (50 U/mL). During this culture, cells were incubated with serially diluted drugs suspended in DMSO.

Cryptococcus neoformans = assay: MIC assay (Example 3); assay type: cell-based; details: Cryptococcus neoformans
Procedure: (§1) In vitro antifungal activity was assessed for all fungal strains in RPMI 1640 (Sigma-Aldrich R1383). MICs were measured using Clinical and Laboratory Standards Institute (CLSI) M38-A2 and M27-A3 standard in vitro antifungal susceptibility protocols. C. neoformans and A. fumigatus testing was performed at 37° C. MECs for A. fumigatus were recorded after 48 h of growth. C. albicans testing was performed at 30° C. with a uniform concentration of 2 μg/mL of fluconazole to sensitize the cells to calcineurin inhibition.
(§2) C. neoformans clinical isolate H99 and congenic-derived strain KN99α were used (see, Nielsen K, et al., 2003. Infect Immun 71:4831-4841). KN99α-derived frr1Δ deletion mutants with nourseothricin resistance markers as part of the Madhani deletion collection (NIH funding R01AI100272) were used. C. deneoformans strains used include JEC21 and derived C21F2 (CNB1-1) and C21F3 (frr1-3) strains (see, Odom A, et al., 1997. EMBO J 16:2576-2589; Moore T D, Edman J C. 1993. Mol Cell Biol 13:1962-1970; Fox D S, et al., 2001. Mol Microbiol 39:835-849). C. albicans strain SC5314 is the wild-type strain from which mutants YAG171 (rbp1/rbp1) and YAG237 (CNB1-1/CNB1) were derived (see, Cruz M C, et al., 2001. Antimicrob Agents Chemother 45:3162-3170). A. fumigatus strain akuB^Ku80 and a derived FKBP12 mutant fkbp12A were used during antifungal screening (see, Falloon K, et al., 2015. PLoS One 10:e0137869).

Candida albicans = assay: MIC assay (Example 3); assay type: cell-based; details: Candida albicans
Procedure: as §1, §2

[3] = MIC90, 37° C., read-out: MIC against Cryptococcus neoformans (H99)
[4] = SC5314, MIC80, 30° C. with 2 μg/mL fluconazole, read-out: MIC against Candida albicans (SC5314)
[5] = read-out: MIC against Cryptococcus neoformans (H99)
[6] = SC5314, read-out: MIC against Candida albicans (SC5314)

Row | Structure (SMILES) | MEC against Aspergillus fumigatus (akuB^Ku80) (Aspergillus fumigatus) [µg/mL] | Therapeutic index [1] | IC50 [2] [µM] | MIC (Cryptococcus neoformans; [3]) [mg/L] | MIC (Cryptococcus neoformans; Table 8, read-out: H99 MIC90) [mg/L] | MIC (Candida albicans; [4]) [mg/L] | MIC (Cryptococcus neoformans; [5]) [mg/L] | MIC (Candida albicans; [6]) [mg/L]
1 | CC[C@@H]1/C=C(\C)C[C@H](C)C[C@H](OC)[C@H]2O[C@@](O)(C(=O)C(=O)N3CCCC[C@H]3C(=O)O[C@H](/C(C)=C/C3CC[C@@H](O)[C@H](OC)C3)[C@H](C)[C@@H](O)C/C1=N/NC(N)=O)[C@H](C)C[C@@H]2OC (stereo partly drawn) [JH-FK-12] | 2.5 | 24.7 | 0.0356 | 0.8 (≈ 0.942 µM) | 0.8 (≈ 0.942 µM) | 0.8 (≈ 0.942 µM) |  | 
2 | CC[C@@H]1/C=C(\C)C[C@H](C)C[C@H](OC)[C@H]2O[C@@](O)(C(=O)C(=O)N3CCCC[C@H]3C(=O)O[C@H](/C(C)=C/C3CC[C@@H](O)[C@H](OC)C3)[C@H](C)[C@@H](O)C/C1=N/NC(=O)c1ccncc1)[C@H](C)C[C@@H]2OC (stereo partly drawn) [JH-FK-09] | 1.3 | 7.8 | 0.0112 | 0.8 (≈ 0.878 µM) | 0.8 (≈ 0.878 µM) | 0.8 (≈ 0.878 µM) |  | 
3 | CCN/N=C1/C[C@H](O)[C@@H](C)[C@@H](/C(C)=C/C2CC[C@@H](O)[C@H](OC)C2)OC(=O)[C@@H]2CCCCN2C(=O)C(=O)[C@]2(O)O[C@H]([C@@H](OC)C[C@@H](C)C/C(C)=C/[C@H]1CC)[C@@H](OC)C[C@H]2C (stereo partly drawn) [JH-FK-16] |  | 8.2 | 0.0059 |  | 0.4 (≈ 0.48 µM) |  |  | 
4 | CC[C@@H]1/C=C(\C)C[C@H](C)C[C@H](OC)[C@H]2O[C@@](O)(C(=O)C(=O)N3CCCC[C@H]3C(=O)O[C@H](/C(C)=C/C3CC[C@@H](O)[C@H](OC)C3)[C@H](C)[C@@H](O)C/C1=N/NS(C)(=O)=O)[C@H](C)C[C@@H]2OC (stereo partly drawn) [JH-FK-23] | 5 | 24.5 | 0.0705 | 1.6 (≈ 1.81 µM) | 1.6 (≈ 1.81 µM) | 1.6 (≈ 1.81 µM) |  | 
5 | CC[C@@H]1/C=C(\C)C[C@H](C)C[C@H](OC)[C@H]2O[C@@](O)(C(=O)C(=O)N3CCCC[C@H]3C(=O)O[C@H](/C(C)=C/[C@@H]3CC[C@@H](O)[C@H](OC)C3)[C@H](C)[C@@H](O)CC1=NNC(=O)CO)[C@H](C)C[C@@H]2OC [JH-FK-22] | 2.5 |  |  |  |  |  | 1.6 (≈ 1.85 µM) | 1.6 (≈ 1.85 µM)
6 | CC[C@@H]1/C=C(\C)C[C@H](C)C[C@H](OC)[C@H]2O[C@@](O)(C(=O)C(=O)N3CCCC[C@H]3C(=O)O[C@H](/C(C)=C/C3CC[C@@H](O)[C@H](OC)C3)[C@H](C)[C@@H](O)C/C1=N/NC(=O)c1cccc(C(=O)NN)c1)[C@H](C)C[C@@H]2OC (stereo partly drawn) [JH-FK-14] | 0.6 | 4.9 | 0.014 | 1.6 (≈ 1.65 µM) | 1.6 (≈ 1.65 µM) | 0.8 (≈ 0.826 µM) |  | 
7 | CC[C@@H]1/C=C(\C)C[C@H](C)C[C@H](OC)[C@H]2O[C@@](O)(C(=O)C(=O)N3CCCC[C@H]3C(=O)O[C@H](/C(C)=C/C3CC[C@@H](O)[C@H](OC)C3)[C@H](C)[C@@H](O)C/C1=N/NC(=O)NN)[C@H](C)C[C@@H]2OC (stereo partly drawn) [JH-FK-21] |  | 18.9 | 0.0545 |  | 1.6 (≈ 1.85 µM) |  |  | 
8 | CC[C@@H]1/C=C(\C)C[C@H](C)C[C@H](OC)[C@H]2O[C@@](O)(C(=O)C(=O)N3CCCC[C@H]3C(=O)O[C@H](/C(C)=C/[C@@H]3CC[C@@H](O)[C@H](OC)C3)[C@H](C)[C@@H](O)CC1=NNS(=O)(=O)c1ccc(C)cc1)[C@H](C)C[C@@H]2OC [JH-FK-13] | >10 |  |  |  |  |  | > 50 | > 50
9 | CC[C@@H]1/C=C(\C)C[C@H](C)C[C@H](OC)[C@H]2O[C@@](O)(C(=O)C(=O)N3CCCC[C@H]3C(=O)O[C@H](/C(C)=C/C3CC[C@@H](O)[C@H](OC)C3)[C@H](C)[C@@H](O)C/C1=N/NC(=O)c1ccc(N)cc1)[C@H](C)C[C@@H]2OC (stereo partly drawn) [JH-FK-20] | 0.6 | 12.3 | 0.0178 | 0.8 (≈ 0.865 µM) | 0.8 (≈ 0.865 µM) | 0.8 (≈ 0.865 µM) |  | 
10 | CC[C@@H]1/C=C(\C)C[C@H](C)C[C@H](OC)[C@H]2O[C@@](O)(C(=O)C(=O)N3CCCC[C@H]3C(=O)O[C@H](/C(C)=C/[C@@H]3CC[C@@H](O)[C@H](OC)C3)[C@H](C)[C@@H](O)CC1=NNC(=O)NN)[C@H](C)C[C@@H]2OC [JH-FK-21] | 2.5 |  |  |  |  |  | 1.6 (≈ 1.85 µM) | 0.8 (≈ 0.926 µM)
11 | CC[C@@H]1/C=C(\C)C[C@H](C)C[C@H](OC)[C@H]2O[C@@](O)(C(=O)C(=O)N3CCCC[C@H]3C(=O)O[C@H](/C(C)=C/C3CC[C@@H](O)[C@H](OC)C3)[C@H](C)[C@@H](O)C/C1=N/NC(=O)CO)[C@H](C)C[C@@H]2OC (stereo partly drawn) [JH-FK-22] |  | 15.6 | 0.045 |  | 1.6 (≈ 1.85 µM) |  |  | 
12 | CCNN=C1C[C@H](O)[C@@H](C)[C@@H](/C(C)=C/[C@@H]2CC[C@@H](O)[C@H](OC)C2)OC(=O)[C@@H]2CCCCN2C(=O)C(=O)[C@]2(O)O[C@H]([C@@H](OC)C[C@@H](C)C/C(C)=C/[C@H]1CC)[C@@H](OC)C[C@H]2C [JH-FK-16] | 1.3 |  |  |  |  |  | 0.4 (≈ 0.48 µM) | 0.4 (≈ 0.48 µM)
